This is an account of results in patent US11718624B2, “Solid state forms of substituted pyrazolopyrimidines and uses thereof” (KSQ Therapeutics, Inc., priority 2020, dated 2023).

This data set in a line: Co-crystal screening experiments with Formula II (Table 17). Type of data set: physicochemical. To be noted: XRPD. Here is the method: Additional co-crystal screens were carried out to identify further solid state forms of Formula (II).
Differential scanning calorimetry (DSC) was carried out with a TA Instruments Q2000 instrument (closed aluminum sample pan aluminum sample pan with a pinhole in the lid, heating rate 20 K/min). The melting point is understood as the peak maximum.
Light microscopy was performed on a Leitz Orthoplan polarized microscope part #130880, generally a 10×10 magnification was applied.
X-ray powder diffraction (XRPD) was carried out with a Stoe Stadi P diffractometer equipped with a Mythen1K detector operating with Cu-Kα1 radiation. The measurements with this instrument were performed in transmission at a tube voltage of 40 kV and 40 mA tube power. A curved Ge monochromator allows testing with Cu-Kα1 radiation. The following parameters were set: 0.02° 2θ step size, 12 s step time, 1.5-50.5° 2θ scanning range, and 1° 2θ detector step (detector mode in step scan). For a typical sample preparation about 10 mg of sample was placed between two acetate foils and mounted into a Stoe transmission sample holder. The sample was rotated during the measurement. All sample preparation and measurement was done in an ambient air atmosphere.
TG-FTIR measurements were carried out with a Netzsch Thermo-Microblanace TG209 coupled to a Bruker FTIR Spectrometer Vector 22 (sample pans with a pinhole, N2 atmosphere, heating rate 10° C./min to 300 or 350° C.).
The starting material was a freebase form of Formula (II).

Turning to `COc1ncnc(C2CC2)c1-c1ncc2cnn(Cc3ccc(-c4nc(C(F)(F)F)cn4C(C)C)cc3)c2n1` [Compound of Formula (II), 6-(4-cyclopropyl-6-methoxypyrimidin-5-yl)-1-(4-(1-isopropyl-4-(trifluoromethyl)-1H-imidazol-2-yl)benzyl)-1H-pyrazolo[3,4-d]pyrimidine], the “Result (co-crystal screening)” value is reported as “Free base” (Experiment 1: material as received); “Free base” (Experiment 6: benzoic acid (1:1.1 eq), EtOAc 0.5 mL/heptane 3 mL, agitated 1 day); “Free base” (Experiment 16: gallic acid in acetone, evaporation, glassy residue treated with water/isopropanol); “Gallic acid” (Experiment 17: 300 mg, 430 mg gallic acid, EtOH, evaporated three days).
